Biological target: LBAA glyphosate oxidoreductase variant v1w2v3 (GLY84, LYS153, ARG334) (Ochrobactrum sp. G-1, UniProt D2KI28, H334R/S2A/S84G)
Test: Kinetic analysis of domain switches, clone v1w2v3
Format: biochemical, bacterial isolate LBAA (Pseudomonas strain LBAA)
Conditions: substrate glyphosate
Experimental: The mutagenesis procedure used was that of Mn++-poisoned PCR and the template was a linearized glyphosate oxidoreductase gene plasmid containing the synthetic glyphosate oxidoreductase gene (SEQ ID NO:8). The oligonucleotide primers used were homologous to regions in the vector and flanking the glyphosate oxidoreductase gene. The PCR conditions employed were as follows: 1 minute at 94° C., 2 minutes at 55° C., and 3 minutes at 72° C. and with 35 cycles. A 5:1 ratio of dCTP+dGTP+TTP to dATP was used. The reactions contained MnCl2 at 125, 250, 375, or 500 μM. After the reaction, the amplified product was recloned into a vector containing a weak E. coli promoter. This vector was a pBR327 derivative containing the araBAD promoter and suitable cloning sites. […] Growth rates were determined by measuring A550 over a 96 hour period. […] Protein concentrations were determined using the Bio-Rad protein dye-binding assay. […] Ten minutes was determined to be the optimal time for the enzyme assay using 10 μg lysate. […] Enzyme activity was determined from the amount of glyoxylate-DNPH adduct formed by measuring A520 against a standard of glyoxylate. […] The Km and Vmax were determined from Lineweaver Burk, Eadie-Hofstee and hyperbolic kinetic plots. […]

O=C(O)CNCP(=O)(O)O [glyphosate, N-phosphonomethyl-glycine]
VmKm: 0.21

— patent USRE38825E1, “Glyphosate tolerant plants” (Monsanto Technology LLC, priority 1990, dated 2005)
